Reference: PubChem BioAssay (NCI)
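In this assay, cells in 96-well plates receive the compound at five concentrations for 48 hours. Endpoints are linearly interpolated between the surrounding concentrations. Here, GI50 denotes the concentration required for 50% inhibition of growth. The concentration for full growth arrest is given as TGI.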 Where a SMILES comes first, the peptide text is derived from it. Bridges are numbered along the chain shown (N, C = ends). Roman numbers before positions name the chains, in order. [ ]: non-standard residue; d: D form. The star is where a group is joined. Quinoxaline2carbonyl = O=C(c1cnc2ccccc2n1)*; NMeV = CN[CH](C(=O)O)C(C)C; NMeC = CN[CH](CS)C(=O)O

Tests used:
Test in all cases: growth of human tumour cells (NCI), 48 h
EKVX NSCLC = test system: EKVX NSCLC
HCC-2998 colon = test system: HCC-2998 colon
U251 CNS = test system: U251 CNS
DU-145 prostate = test system: DU-145 prostate
MOLT-4 leukemia = test system: MOLT-4 leukemia
HL-60(TB) leukemia = test system: HL-60(TB) leukemia
HS 578T breast = test system: HS 578T breast
ACHN renal = test system: ACHN renal
MCF7 breast = test system: MCF7 breast
BT-549 breast = test system: BT-549 breast

Row | Structure (SMILES) | TGI (EKVX NSCLC) [µM] | TGI (HCC-2998 colon) [µM] | TGI (U251 CNS) [µM] | TGI (DU-145 prostate) [µM] | TGI (MOLT-4 leukemia) [µM] | TGI (HL-60(TB) leukemia) [µM] | TGI (HS 578T breast) [µM] | TGI (ACHN renal) [µM] | TGI (MCF7 breast) [µM] | GI50 (EKVX NSCLC) [µM] | GI50 (HCC-2998 colon) [µM] | GI50 (U251 CNS) [µM] | GI50 (MOLT-4 leukemia) [µM] | GI50 (HL-60(TB) leukemia) [µM] | GI50 (ACHN renal) [µM] | GI50 (DU-145 prostate) [µM] | GI50 (BT-549 breast) [µM] | TGI (BT-549 breast) [µM] | GI50 (MCF7 breast) [µM] | GI50 (HS 578T breast) [µM]
1 | c1ccc2c3c([nH]c2c1)C1CCCN1CC3 (stereo not given) | > 10 | > 10 | > 10 | > 10 | > 10 | > 10 | > 10 | > 10 | > 10 |  |  |  |  |  |  |  |  |  |  | 
2 | COc1cc2nc(NCCCCCNC(=O)c3ccco3)nc(N)c2cc1OC | > 100 | 38.2 | 42.5 |  | 67.8 | 43.3 |  | > 100 |  |  |  |  |  |  |  |  |  |  |  | 
3 | CC1(C)OCC(C(O)C2OC(C)(C)OC2/C=N\O)O1 (stereo not given) | > 100 | > 100 | > 100 |  | > 100 | > 100 |  | > 100 |  |  |  |  |  |  |  |  |  |  |  | 
4 | CCO/C=C1\N=C(c2ccccc2Br)OC1=O | > 100 | > 100 |  |  | > 100 | > 100 |  | > 100 |  |  |  |  |  |  |  |  |  |  |  | 
5 | N#Cc1ccc(N=Cc2c([O-])ccc3ccccc23)cc1.[C-]#[O+].[C-]#[O+].[Ir] | 25 | 27.8 | 25.7 |  | 19.3 | 5.18 |  | 18.7 |  | 11.5 | 14.7 | 13 | 4.16 | 1.5 | 6.32 |  |  |  |  | 
6 | COCCOCOc1ccc(OCOCCOC)c2c1C(=O)c1ccccc1C2=O | > 100 | > 100 | > 100 |  | > 100 | > 100 |  | > 100 |  |  |  |  |  |  |  |  |  |  |  | 
7 | CCOC1=C2N=C(Cc3ccccc3F)N=C2C(=O)c2ccccc21 | > 100 | > 100 | > 100 |  | > 100 | > 100 |  | > 100 |  |  |  |  |  |  |  |  |  |  |  | 
8 | O=C(Cc1ccccc1)NN1C(=O)C(Cl)C1c1ccccc1O (stereo not given) | 26.7 | > 100 | > 100 |  | > 100 | 18.8 |  | > 100 |  |  |  |  |  |  |  |  |  |  |  | 
9 | COc1cc(-c2cc(-c3cc([N+](=O)[O-])c(/C=N/NC(=O)c4ccncc4)o3)ccc2OC)ccc1C | > 100 | > 100 |  |  |  |  |  | > 100 |  |  |  |  |  |  |  |  |  |  |  | 
10 | O=C(Oc1cccnc1)c1ccsc1Nc1ccnc(C(F)(F)F)c1 | > 100 | 24 | 18.7 | > 100 | 35 |  |  | 95.8 | > 100 | 34.2 | 11 | 3.91 | 4.39 |  | 17.7 | 24.6 | 5.36 | > 100 | 3.51 | 
11 | COC(=O)C(C)(C)N=CN(C)C | > 100 | > 100 | > 100 |  | > 100 | > 100 |  | > 100 |  |  |  |  |  |  |  |  |  |  |  | 
12 | COC(CN1C=C(Sc2ccccc2)CC1)OC | > 100 | > 100 |  |  | 80.3 | 34 |  | > 100 |  |  |  |  |  |  |  |  |  |  |  | 
13 | CCCCCCCCCCCCCP(=O)(O)NCC(N)=O | > 100 | > 100 | > 100 |  |  | 67.3 |  | > 100 |  |  |  |  |  |  |  |  |  |  |  | 
14 | COC(=O)CC1NC(=O)C1C1(C)OCCO1 (stereo not given) | > 100 | > 100 | > 100 |  |  | > 100 |  | > 100 |  |  |  |  |  |  |  |  |  |  |  | 
15 | COC1O[C@@H]2C[C@H]3C(C)(C)CCC[C@]3(C)C3=CCCC1[C@@]32C (stereo not given in full) | > 100 |  | > 100 | > 100 | > 100 |  | > 100 | > 100 | > 100 | > 100 |  | > 100 | > 100 |  | > 100 | > 100 | > 100 | > 100 | > 100 | > 100
16 | Cc1cc(N(CCC#N)CCC#N)ccc1/C=C1/N=C(c2ccccc2)N(N)C1=O | > 100 | > 100 | > 100 |  | > 100 | > 100 |  | > 100 |  |  |  |  |  |  |  |  |  |  |  | 
17 | CCCCCCN(N)C(=O)CC#N | > 100 | > 100 | > 100 |  | > 100 |  |  | > 100 |  |  |  |  |  |  |  |  |  |  |  | 
18 | Cc1ccc(NC(=O)c2ccccc2C(=O)O)cc1C | > 100 |  | > 100 | > 100 | > 100 |  | > 100 | > 100 | > 100 |  |  |  |  |  |  |  |  | > 100 |  | 
19 | COc1ccc2c(c1OC)C(=O)OC2C1c2c(c([N+](=O)[O-])c3c(c2OC)OCO3)CCN1C (stereo not given) | > 100 | > 100 | > 100 | > 100 |  |  | > 100 | > 100 | > 100 | > 100 | 27.8 | > 100 |  |  | > 100 | > 100 | > 100 | > 100 | > 100 | > 100
20 | CC1(C)C2CCC13CS(=O)(=O)N1O[C@]13C(=O)O2 (stereo not given in full) | > 100 | > 100 | > 100 |  | > 100 | > 100 |  | > 100 |  |  |  |  |  |  |  |  |  |  |  | 
21 | CC1NC(=O)C(NC(=O)c2cnc3ccccc3n2)COC(=O)C(C(C)C)N(C)C(=O)C2CSSCC(C(=O)N(C)C(C(C)C)C(=O)OCC(NC(=O)c3cnc4ccccc4n3)C(=O)NC(C)C(=O)N2C)N(C)C1=O (stereo not given) (I: Quinoxaline2carbonyl-SA[NMeC][NMeV] / II: Quinoxaline2carbonyl-SA[NMeC][NMeV]; ester I:1-II:C, I:C-II:1; disulfide I:3-II:3; configuration not given here) |  | < 0.01 | > 31.8 |  | > 4.64 | < 0.01 | < 0.01 | 11.9 | < 0.01 |  |  |  |  |  |  |  |  | < 0.01 |  | 
22 | Cc1cc2c(c(C(=O)O)c1C)-c1cccc(F)c1C2=O | > 100 | > 100 | > 100 |  | > 100 |  |  | > 100 |  |  |  |  |  |  |  |  |  |  |  | 
23 | CC(C)c1c2[nH]c3ccccc3c2c(C(C)C)c2[nH]c3ccccc3c12 | > 100 | > 100 | > 100 |  | > 100 | > 62.5 |  | > 100 |  |  |  |  |  |  |  |  |  |  |  | 
24 | Cc1ccc(S(=O)OC2C3CC4CC(C3)CC2C4)cc1 (stereo not given) | > 100 | > 100 | > 100 |  | > 100 | > 100 |  | > 100 |  |  |  |  |  |  |  |  |  |  |  | 
25 | CN1CCN(Cc2ccc(NC(=O)c3[nH]ncc3Nc3ncnc4sc5c(c34)CCCC5)cc2)CC1 |  | 2.07 |  |  | 0.503 | 0.804 | 1.74 | 0.969 |  |  | 0.535 |  | 0.108 | 0.269 | 0.19 |  | 1.23 | 2.65 |  | 0.151
26 | CNS(=O)(=O)NNS(=O)(=O)c1ccc(Cl)cc1 | > 100 | > 100 |  |  | > 100 | > 100 |  | > 100 |  |  |  |  |  |  |  |  |  |  |  | 
